This experiment addresses T1, human vasopressin V1a receptor subtype (Homo sapiens, UniProt P37288).
T1 construct: host or cells: CHO cells (pZeoSV vector for the Thibonnier line)
Nature of the experiment: Vasopressin binding in Chinese Hamster Ovary cell membranes expressing human vasopressin V1a subtype receptors. Particulars: 100 nM, CHO cell membranes, [3H]Manning ligand, values without parentheses. Summed up:
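Membranes from CHO cells expressing human V1a receptor were incubated with [3H]Manning ligand (added as 20 μL of 8 nM) in pH 7.4 Tris buffer with MgCl2, BSA and protease inhibitors, 60 min at room temperature. Bound radioactivity was counted after filtration; values are percent inhibition at a stated concentration or IC50.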

T1 sequence (P37288 whole entry): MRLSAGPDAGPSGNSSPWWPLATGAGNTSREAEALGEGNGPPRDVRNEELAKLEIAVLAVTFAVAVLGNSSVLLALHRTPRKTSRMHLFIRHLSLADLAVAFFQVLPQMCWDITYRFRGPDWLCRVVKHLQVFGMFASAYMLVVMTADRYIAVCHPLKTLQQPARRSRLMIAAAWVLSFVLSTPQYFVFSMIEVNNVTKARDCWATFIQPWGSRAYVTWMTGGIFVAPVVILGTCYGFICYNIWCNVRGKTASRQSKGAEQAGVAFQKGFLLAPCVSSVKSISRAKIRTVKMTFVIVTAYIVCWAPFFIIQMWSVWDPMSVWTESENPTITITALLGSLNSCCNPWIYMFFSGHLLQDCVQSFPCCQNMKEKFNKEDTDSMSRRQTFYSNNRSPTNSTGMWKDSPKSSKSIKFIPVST

For the compound `Cc1cc(C(=O)N2Cc3ccc(C(=O)N4CCN(C(=O)OC(C)(C)C)CC4)n3Cc3ccccc32)ccc1-c1ccccc1C(F)(F)F` [Example 6, 4-[[10,11-Dihydro-10-[[2-methyl-2′-trifluoromethyl[1,1′-biphenyl]-4-yl]carbonyl]-5H-pyrrolo[2,1-c][1,4]benzodiazepin-3-yl]carbonyl]-1-piperazine-carboxylic acid, tert-butyl ester], the inhibition (in general, the relative decrease from the control value, in per cent) at 0.1 µM was found to be 2%.
As for `COc1ccccc1-c1ccc(C(=O)N2Cc3ccc(C(=O)O)n3Cc3ccccc32)cc1C` [Example 9, 10-[(2′-Methoxy-2-methyl-[1,1′-biphenyl]-4-yl)carbonyl]-10,11-dihydro-5H-pyrrolo[2,1-c][1,4]benzodiazepine-3-carboxylic acid], the figure is 10%; as for `COc1cc2c(cc1OC)N(C(=O)c1ccc(-c3ccccc3C(F)(F)F)c(C)c1)Cc1cccn1C2` [Example 12, 7,8-Dimethoxy-[10,11-dihydro-5H-pyrrolo[2,1-c][1,4]benzodiazepin-10-yl][2-methyl-2′-(trifluoromethyl)[1,1′-biphenyl]-4-yl]methanone], -10%.
Turning to `COc1cc(-c2ccccc2C(F)(F)F)c(Cl)cc1C(=O)N1Cc2ccc(C(=O)O)n2Cc2ccccc21` [Example 15, 10-{[6-Chloro-3-methoxy-2′-trifluoromethyl-[1,1′-biphenyl]-4-yl]carbonyl}-10,11-dihydro-5H-pyrrolo[2,1-c][1,4]benzodiazepine-3-carboxylic acid], the inhibition at 0.1 µM was -8%.
The value for `COc1cccc(-c2cc(OC)c(C(=O)N3Cc4ccc(C(=O)NCCN5CCCCC5)n4Cc4ccccc43)cc2Cl)c1` [Example 156, 10-[(6-Chloro-3,3′-dimethoxy[1,1′-biphenyl]-4-yl)carbonyl]-N-[2-(1-piperidinyl)ethyl]-10,11-dihydro-5H-pyrrolo[2,1-c][1,4]benzodiazepine-3-carboxamide] was 2%.
As for `COc1cc(C(=O)N2Cc3ccc(C(=O)NCCN4CCCCC4)n3Cc3ccccc32)ccc1-c1cccc2ccccc12` [Example 157, 10-[3-Methoxy-4-(1-naphthyl)benzoyl]-N-[2-(1-piperidinyl)ethyl]-10,11-dihydro-5H-pyrrolo[2,1-c][1,4]benzodiazepine-3-carboxamide], the figure is 5%.
As for `COc1ccccc1-c1ccc(C(=O)N2Cc3ccc(C(=O)NCCN4CCCCC4)n3Cc3ccccc32)cc1OC` [Example 158, 10-[(2,2′-Dimethoxy[1,1′-biphenyl]-4-yl)carbonyl]-N-[2-(1-piperidinyl)ethyl]-10,11-dihydro-5H-pyrrolo[2,1-c][1,4]benzodiazepine-3-carboxamide], the figure is 16%; as for `COc1cccc(-c2ccc(C(=O)N3Cc4ccc(C(=O)NCCN5CCCCC5)n4Cc4ccccc43)cc2OC)c1` [Example 159, 10-[(2,3′-Dimethoxy[1,1′-biphenyl]-4-yl)carbonyl]-N-[2-(1-piperidinyl)ethyl]-10,11-dihydro-5H-pyrrolo[2,1-c][1,4]benzodiazepine-3-carboxamide], 44%.
As for `O=C(NCCN1CCCCC1)c1ccc2n1Cc1ccccc1N(C(=O)c1ccc(-c3cccc4ccccc34)cc1Cl)C2` [Example 160, 10-[2-Chloro-4-(1-naphthyl)benzoyl]-N-[2-(1-piperidinyl)ethyl]-10,11-dihydro-5H-pyrrolo[2,1-c][1,4]benzodiazepine-3-carboxamide], the inhibition at 0.1 µM is 6%.
Take `Cc1cc(C(=O)N2Cc3ccc(C(=O)NCCN4CCCCC4)n3Cc3ccccc32)ccc1-c1ccccc1C(F)(F)F` [Example 161, 10-{[2-Methyl-2′-(trifluoromethyl)[1,1′-biphenyl]-4-yl]carbonyl}-N-[2-(1-piperidinyl)ethyl]-10,11-dihydro-5H-pyrrolo[2,1-c][1,4]benzodiazepine-3-carboxamide]: the inhibition at 0.1 µM was found to be 8%.
As to `COc1ccccc1-c1ccc(C(=O)N2Cc3ccc(C(=O)NCCC4CCCN4C)n3Cc3ccccc32)cc1C` (stereo not shown) [Example 162, 10-[(2′-Methoxy-2-methyl[1,1′-biphenyl]-4-yl)carbonyl]-N-[2-(1-methyl-2-pyrrolidinyl)ethyl]-10,11-dihydro-5H-pyrrolo[2,1-c][1,4]benzodiazepine-3-carboxamide], the inhibition at 0.1 µM stood at 18%.
For the compound `Cc1ccccc1-c1ccc(C(=O)N2Cc3ccc(C(=O)NCCC4CCCN4C)n3Cc3ccccc32)cc1C` (stereo not shown) [Example 163, 10-[(2,2′-Dimethyl[1,1′-biphenyl]-4-yl)carbonyl]-N-[2-(1-methyl-2-pyrrolidinyl)ethyl]-10,11-dihydro-5H-pyrrolo[2,1-c][1,4]benzodiazepine-3-carboxamide], the inhibition at 0.1 µM was 43%.
As for `COc1ccccc1-c1ccc(C(=O)N2Cc3ccc(C(=O)NCCC4CCCN4C)n3Cc3ccccc32)cc1` (stereo not shown) [Example 165, 10-[(2′-Methoxy[1,1′-biphenyl]-4-yl)carbonyl]-N-[2-(1-methyl-2-pyrrolidinyl)ethyl]-10,11-dihydro-5H-pyrrolo[2,1-c][1,4]benzodiazepine-3-carboxamide], the figure is 24%.
The value for `Cc1ccccc1-c1ccc(C(=O)N2Cc3ccc(C(=O)NCCC4CCCN4C)n3Cc3ccccc32)cc1` (stereo not shown) [Example 166, 10-[(2′-Methyl[1,1′-biphenyl]-4-yl)carbonyl]-N-[2-(1-methyl-2-pyrrolidinyl)ethyl]-10,11-dihydro-5H-pyrrolo[2,1-c][1,4]benzodiazepine-3-carboxamide] was 29%; that for `COc1cc(C(=O)N2Cc3ccc(C(=O)NCCC4CCCN4C)n3Cc3ccccc32)ccc1-c1ccccc1C` (stereo not shown) [Example 167, 10-[(2-Methoxy-2′-methyl[1,1′-biphenyl]-4-yl)carbonyl]-N-[2-(1-methyl-2-pyrrolidinyl)ethyl]-10,11-dihydro-5H-pyrrolo[2,1-c][1,4]benzodiazepine-3-carboxamide] was 50%; that for `COc1cc(-c2ccccc2C)c(Cl)cc1C(=O)N1Cc2ccc(C(=O)NCCC3CCCN3C)n2Cc2ccccc21` (stereo not shown) [Example 168, 10-[(6-Chloro-3-methoxy-2′-methyl[1,1′-biphenyl]-4-yl)carbonyl]-N-[2-(1-methyl-2-pyrrolidinyl)ethyl]-10,11-dihydro-5H-pyrrolo[2,1-c][1,4]benzodiazepine-3-carboxamide] was 8%.
With `COc1cccc(-c2cc(OC)c(C(=O)N3Cc4ccc(C(=O)NCCC5CCCN5C)n4Cc4ccccc43)cc2Cl)c1` (stereo not shown) [Example 169, 10-[(6-Chloro-3,3′-dimethoxy[1,1′-biphenyl]-4-yl)carbonyl]-N-[2-(1-methyl-2-pyrrolidinyl)ethyl]-10,11-dihydro-5H-pyrrolo[2,1-c][1,4]benzodiazepine-3-carboxamide], the inhibition at 0.1 µM worked out at 9%.
The value for `COc1cc(C(=O)N2Cc3ccc(C(=O)NCCC4CCCN4C)n3Cc3ccccc32)ccc1-c1cccc2ccccc12` (stereo not shown) [Example 170, 10-[3-Methoxy-4-(1-naphthyl)benzoyl]-N-[2-(1-methyl-2-pyrrolidinyl)ethyl]-10,11-dihydro-5H-pyrrolo[2,1-c][1,4]benzodiazepine-3-carboxamide] was 21%; that for `COc1ccccc1-c1ccc(C(=O)N2Cc3ccc(C(=O)NCCC4CCCN4C)n3Cc3ccccc32)cc1OC` (stereo not shown) [Example 171, 10-[(2,2′-Dimethoxy[1,1′-biphenyl]-4-yl)carbonyl]-N-[2-(1-methyl-2-pyrrolidinyl)ethyl]-10,11-dihydro-5H-pyrrolo[2,1-c][1,4]benzodiazepine-3-carboxamide] was 14%.
The value for `COc1cccc(-c2ccc(C(=O)N3Cc4ccc(C(=O)NCCC5CCCN5C)n4Cc4ccccc43)cc2OC)c1` (stereo not shown) [Example 172, 10-[(2,3′-Dimethoxy[1,1′-biphenyl]-4-yl)carbonyl]-N-[2-(1-methyl-2-pyrrolidinyl)ethyl]-10,11-dihydro-5H-pyrrolo[2,1-c][1,4]benzodiazepine-3-carboxamide] was 43%.
Regarding `CN1CCCC1CCNC(=O)c1ccc2n1Cc1ccccc1N(C(=O)c1ccc(-c3cccc4ccccc34)cc1Cl)C2` (stereo not shown) [Example 173, 10-[2-Chloro-4-(1-naphthyl)benzoyl]-N-[2-(1-methyl-2-pyrrolidinyl)ethyl]-10,11-dihydro-5H-pyrrolo[2,1-c][1,4]benzodiazepine-3-carboxamide], the inhibition at 0.1 µM is 0%.
As for `Cc1cc(C(=O)N2Cc3ccc(C(=O)NCCC4CCCN4C)n3Cc3ccccc32)ccc1-c1ccccc1C(F)(F)F` (stereo not shown) [Example 174, N-[2-(1-Methyl-2-pyrrolidinyl)ethyl]-10-{[2-methyl-2′-(trifluoromethyl)[1,1′-biphenyl]-4-yl]carbonyl}-10,11-dihydro-5H-pyrrolo[2,1-c][1,4]benzodiazepine-3-carboxamide], the figure is 8%; as for `COc1ccccc1-c1ccc(C(=O)N2Cc3ccc(C(=O)N(C)C4CCN(C)CC4)n3Cc3ccccc32)cc1C` [Example 175, 10-[(2′-Methoxy-2-methyl[1,1′-biphenyl]-4-yl)carbonyl]-N-methyl-N-(1-methyl-4-piperidinyl)-10,11-dihydro-5H-pyrrolo[2,1-c][1,4]benzodiazepine-3-carboxamide], 28%; as for `COc1cccc(-c2ccc(C(=O)N3Cc4ccc(C(=O)N(C)C5CCN(C)CC5)n4Cc4ccccc43)cc2C)c1` [Example 176, 10-[(3′-Methoxy-2-methyl[1,1′-biphenyl]-4-yl)carbonyl]-N-methyl-N-(1-methyl-4-piperidinyl)-10,11-dihydro-5H-pyrrolo[2,1-c][1,4]benzodiazepine-3-carboxamide], 27%.
As for `COc1ccccc1-c1ccc(C(=O)N2Cc3ccc(C(=O)N(C)C4CCN(C)CC4)n3Cc3ccccc32)cc1` [Example 177, 10-[(2′-Methoxy[1,1′-biphenyl]-4-yl)carbonyl]-N-methyl-N-(1-methyl-4-piperidinyl)-10,11-dihydro-5H-pyrrolo[2,1-c][1,4]benzodiazepine-3-carboxamide], the figure is 42%.
